This passage reports CC50 and EC50 results from US9724351B2, “Compounds for the treatment of paramoxyvirus viral infections” (priority 2012, dated 2017).

Data set [1] can be described thus: Cytotoxicity Determination. It is filed as cell-based. As to conditions: human, HEp-2 cells, without addition of virus, CCK-8 readout, bins (Table 4: greater than 100 μM; Table 5: equal to or less than 100 μM and greater than 10 μM), read-out: 50% cytotoxicity concentration (CC50). The gist of the method:
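CC50 was derived from CCK-8 optical density after a 3-4 h reagent incubation. Before that, cells without virus had been treated for 5 days at 37 °C, 5% CO2 with compound at seven ½-step final concentrations from 100 μM, in duplicate wells.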

For data set [2], the system named is Respiratory Syncytial Virus (RSV) long strain (ATCC#VR-26). In words: RSV Antiviral Assay (CPE reduction assay). The format is cell-based. The settings on record: human respiratory syncytial virus, 120 h; HEp-2 cells infected with RSV long strain, 5 days, CCK-8 readout; bins (Table 2: less than 1 μM; Table 3: equal to or higher than 1 μM and less than 50 μM); read-out: 50% effective concentration (EC50). The method in brief: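 Cytopathic-effect protection measured after 5 days at 37 °C, 5% CO2 via CCK-8 dehydrogenase readout at 450 nm (630 nm reference), EC50 regressed from mean O.D. Host HEp-2 cells received RSV long strain at 100 TCID50/well; compound 9-point ⅓ series starting 100 μM or 1 μM, 1% DMSO, duplicate wells.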

For `COc1cc(C(=O)NCC(=O)c2ccc(OC)c(-c3ccc(F)c(Br)c3)n2)ccc1OCCO` [Compound 1622], the CC50 at 5 days in data set [1] was over 100 µM. Besides, the EC50 in data set [2] was under 1 µM.
For `COc1cc(C(=O)NCC(=O)c2ccc(OC)c(-c3ccc(Cl)c(C(F)(F)F)c3)n2)ccc1OCCO` [Compound 1623] the same measures were over 100 µM and under 1 µM.
For `COc1ccc(C(=O)NCC(=O)c2ccc3cccnc3c2)cc1OC` [Compound 1700], the CC50 at 5 days in data set [1] was over 100 µM. Further, the EC50 in data set [2] lay in the range of 1 to 50 µM.
Consider `COc1ccc(C(=O)NCC(=O)c2ccc3ccccc3n2)cc1OC` [Compound 1701], for which, in data set [1], the CC50 at 5 days was over 100 µM. For the same molecule, the EC50 in data set [2] lay within 1 to 50 µM.
In the same order, the values of `COc1ccc(C(=O)N2CCCCC2C(=O)c2ccc(OC)c(-c3csc4c(F)cccc34)n2)cc1OC` (stereo not drawn) [Compound 1800] are 10 to 100 µM and 1 to 50 µM.
On to `COc1ccc(C(=O)NC(C)CC(=O)c2ccc(OC)c(-c3csc4c(F)cccc34)n2)cc1OC` (stereo not drawn) [Compound 1801], for which the CC50 at 5 days in data set [1] is over 100 µM. In data set [2], the EC50 is 1 to 50 µM.
Take `COc1cc(C(=O)N[C@@H](CCO)C(=O)c2ccc(OC)c(-c3csc4c(F)cccc34)n2)ccc1OCCO` [Compound 1803]: in data set [1], the CC50 at 5 days is 10 to 100 µM. The EC50 in data set [2] was under 1 µM.
For `COc1cc(C(=O)N[C@H](CCO)C(=O)c2ccc(OC)c(-c3ccc(F)c(C(F)(F)F)c3)n2)ccc1OCCO` [Compound 1806] the same measures were over 100 µM and under 1 µM.
In the same order, the values of `COc1cc(C(=O)N[C@@H](CCO)C(=O)c2ccc(OC)c(-c3ccc(F)c(C(F)(F)F)c3)n2)ccc1OCCO` [Compound 1807] are over 100 µM and under 1 µM.
For `COc1cc(C(=O)NC(C)C(=O)c2ccc(OC)c(-c3csc4c(F)cccc34)n2)ccc1OCCO` (stereo not drawn) [Compound 1808] the same measures were 10 to 100 µM and under 1 µM.
Consider `COc1cc(C(=O)N[C@@H](C)C(=O)c2ccc(OC)c(-c3ccc(F)c(C(F)(F)F)c3)n2)ccc1OCCO` [Compound 1812], for which the CC50 at 5 days in data set [1] lay in the range of 10 to 100 µM. For the same molecule, the EC50 in data set [2] is under 1 µM.
For the molecule `COc1ccc(C(=O)NC(CO)C(=O)c2ccc(OC)c(-c3csc4c(F)cccc34)n2)cc1OC` (stereo not drawn) [Compound 1816], the CC50 at 5 days in data set [1] is over 100 µM. Besides, the EC50 in data set [2] is under 1 µM.
Take `COc1cc(C(=O)N[C@@H](COC(C)(C)C)C(=O)c2ccc(OC)c(-c3csc4c(F)cccc34)n2)ccc1OCCO` [Compound 1819]: in data set [1], the CC50 at 5 days was 10 to 100 µM. Also, the EC50 in data set [2] is under 1 µM.
For `COc1ccc(C(=O)NC(CCC(=O)O)C(=O)c2ccc(OC)c(-c3csc4c(F)cccc34)n2)cc1OC` (stereo not drawn) [Compound 1821], the CC50 at 5 days in data set [1] lay within 10 to 100 µM. Moreover, the EC50 in data set [2] is under 1 µM.
For the molecule `COc1ccc(C(=O)N2CCCC2C(=O)c2ccc(OC)c(-c3csc4c(F)cccc34)n2)cc1OC` (stereo not drawn) [Compound 1822], the CC50 at 5 days in data set [1] lay within 10 to 100 µM. Further, the EC50 in data set [2] lay in the range of 1 to 50 µM.
In the same order, the values of `COc1ccc(C(=O)NC(C)C(=O)c2ccc(OC)c(-c3csc4c(F)cccc34)n2)cc1OC` (stereo not drawn) [Compound 1824] are over 100 µM and under 1 µM.
Turning to `COc1cc(C(=O)N[C@@H](CO)C(=O)c2ccc(OC)c(-c3csc4c(F)cccc34)n2)ccc1OCCO` [Compound 1830], the CC50 at 5 days in data set [1] is over 100 µM. Also, in data set [2], the EC50 was under 1 µM.
In the same order, the values of `COc1cc(C(=O)N[C@H](CO)C(=O)c2ccc(OC)c(-c3ccc(F)c(Cl)c3)n2)ccc1OCCO` [Compound 1831] are 10 to 100 µM and under 1 µM.
In the case of `COc1cc(C(=O)N[C@@H](CO)C(=O)c2ccc(OC)c(-c3ccc(F)c(Cl)c3)n2)ccc1OCCO` [Compound 1832], the CC50 at 5 days in data set [1] was 10 to 100 µM. Further, the EC50 in data set [2] was under 1 µM.
For `COc1cc(C(=O)N[C@@H](CCCCN)C(=O)c2ccc(OC)c(-c3csc4c(F)cccc34)n2)ccc1OCCO` [Compound 1835] the same measures were 10 to 100 µM and under 1 µM.
`COc1cc(C(=O)N[C@H](CCCCN)C(=O)c2ccc(OC)c(-c3csc4c(F)cccc34)n2)ccc1OCCO` [Compound 1836]: in data set [1], the CC50 at 5 days is 10 to 100 µM. Also, in data set [2], the EC50 was 1 to 50 µM.
As for `COc1cc(C(=O)NC(CCO)C(=O)c2ccc(OC)c(-c3ccc(F)c(Cl)c3)n2)ccc1OCCO` (stereo not drawn) [Compound 1837], in data set [1], the CC50 at 5 days was 10 to 100 µM. Further, in data set [2], the EC50 was under 1 µM.
Consider `COc1cc(C(=O)NC(C)C(=O)c2ccc(OC)c(-c3ccc(F)c(Cl)c3)n2)ccc1OCCO` (stereo not drawn) [Compound 1839], for which, in data set [1], the CC50 at 5 days lay within 10 to 100 µM. Moreover, in data set [2], the EC50 is under 1 µM.
With `COc1ccc(C(=O)NCC(=O)c2ccc(N(C)C)c(-c3csc4c(F)cccc34)n2)cc1OC` [Compound 2101], the CC50 at 5 days in data set [1] is over 100 µM. Also, in data set [2], the EC50 fell in the range of 1 to 50 µM.
On to `COc1ccc(C(=O)NCC(=O)c2ccnc(-c3csc4c(F)cccc34)c2O)cc1OC` [Compound 2102], for which the CC50 at 5 days in data set [1] fell in the range of 10 to 100 µM. In addition, the EC50 in data set [2] was 1 to 50 µM.
Regarding `COc1cc(C(=O)NCC(=O)c2cc(C)c(OC)c(-c3csc4c(F)cccc34)n2)ccc1OCCO` [Compound 2103], in data set [1], the CC50 at 5 days is 10 to 100 µM. For the same molecule, the EC50 in data set [2] is under 1 µM.
`CCc1cc(C(=O)CNC(=O)c2ccc(OCCO)c(OC)c2)nc(-c2csc3c(F)cccc23)c1OC` [Compound 2104]: the CC50 at 5 days in data set [1] was in the range of 10 to 100 µM. For the same molecule, in data set [2], the EC50 was under 1 µM.
As to `CCc1ccc(C(=O)CNC(=O)c2ccc(OC)c(OC)c2)nc1-c1csc2c(F)cccc12` [Compound 2105], the CC50 at 5 days in data set [1] was in the range of 10 to 100 µM. Further, the EC50 in data set [2] was in the range of 1 to 50 µM.
On to `CCc1ccc(C(=O)CNC(=O)c2ccc(OCCO)c(OC)c2)nc1-c1csc2c(F)cccc12` [Compound 2106], for which the CC50 at 5 days in data set [1] is 10 to 100 µM. In data set [2], the EC50 was under 1 µM.
For `COc1cc(C(=O)NCC(=O)c2ccc(OC(F)(F)F)c(-c3csc4c(F)cccc34)n2)ccc1OCCO` [Compound 2107] the same measures were 10 to 100 µM and 1 to 50 µM.
`COc1cc(C(=O)NCC(=O)c2cc(OC)c(OC)c(-c3csc4c(F)cccc34)n2)ccc1OCCO` [Compound 2108]: the CC50 at 5 days in data set [1] is over 100 µM. Besides, in data set [2], the EC50 was under 1 µM.
As for `CCc1cc(C(=O)CNC(=O)c2ccc(OCCO)c(OC)c2)nc(-c2ccc(F)cc2)c1` [Compound 2109], in data set [1], the CC50 at 5 days fell in the range of 10 to 100 µM. The EC50 in data set [2] was under 1 µM.
For `CCc1cc(C(=O)CNC(=O)c2ccc(OCCO)c(OC)c2)nc(-c2coc3c(F)cccc23)c1` [Compound 2111], the CC50 at 5 days in data set [1] is over 100 µM. Also, the EC50 in data set [2] is under 1 µM.
For `CCc1cc(C(=O)CNC(=O)c2ccc(OCCO)c(OC)c2)nc(-c2c[nH]c3c(F)cccc23)c1` [Compound 2112], the CC50 at 5 days in data set [1] is over 100 µM. The EC50 in data set [2] was under 1 µM.
With `COc1cc(C(=O)NCC(=O)c2cc(C(C)(C)C)cc(-c3ccc(F)c(Cl)c3)n2)ccc1OCCO` [Compound 2115], in data set [1], the CC50 at 5 days lay within 10 to 100 µM. The EC50 in data set [2] was under 1 µM.
In the same order, the values of `COc1cc(C(=O)NCC(=O)c2cn(C(C)C)cc(-c3csc4c(F)cccc34)c2=O)ccc1OCCO` [Compound 2200] are over 100 µM and under 1 µM.
For `CCCn1nc(-c2csc3c(F)cccc23)nc1C(=O)CNC(=O)c1ccc(OC)c(OC)c1` [Compound 2203] the same measures were over 100 µM and 1 to 50 µM.
In the same order, the values of `COc1cc(C(=O)NCC(=O)N(C)/N=C/c2c(C)sc3c(F)cccc23)ccc1OCCO` [Compound 2300] are 10 to 100 µM and under 1 µM.
In the case of `CCN(/N=C/c1csc2c(F)cccc12)C(=O)CNC(=O)c1ccc(OCCO)c(OC)c1` [Compound 2301], in data set [1], the CC50 at 5 days is over 100 µM. The EC50 in data set [2] is under 1 µM.
Regarding `CCCN(/N=C/c1csc2c(F)cccc12)C(=O)CNC(=O)c1ccc(OCCO)c(OC)c1` [Compound 2302], in data set [1], the CC50 at 5 days lay within 10 to 100 µM. In data set [2], the EC50 was under 1 µM.
`COc1ccc(C(=O)NCC(=O)N(C)/N=C/c2c(C#N)sc3c(F)cccc23)cc1OCCO` [Compound 2303]: the CC50 at 5 days in data set [1] is over 100 µM. In data set [2], the EC50 fell in the range of 1 to 50 µM.
For `COc1cc(C(=O)NCC(=O)N(C)/N=C/c2c(F)sc3c(F)cccc23)ccc1OCCO` [Compound 2304] the same measures were 10 to 100 µM and 1 to 50 µM.
For `COc1cc(NCCC(=O)N(C)/N=C/c2csc3c(F)cccc23)ccc1OCCO` [Compound 2305], in data set [1], the CC50 at 5 days lay within 10 to 100 µM. In addition, in data set [2], the EC50 lay within 1 to 50 µM.
On to `COc1cc(OCCC(=O)N(C)/N=C/c2csc3c(F)cccc23)ccc1OCCO` [Compound 2306], for which the CC50 at 5 days in data set [1] was over 100 µM. The EC50 in data set [2] lay in the range of 1 to 50 µM.
With `COc1ccc(C(=O)NCC(=O)c2cccc(-n3cnc4c(F)cccc43)n2)cc1OC` [Compound 2600], the CC50 at 5 days in data set [1] was in the range of 10 to 100 µM. In data set [2], the EC50 was in the range of 1 to 50 µM.
For the molecule `COc1ccc(C(=O)NCC(=O)c2cccc(-n3ncc4c(F)cccc43)n2)cc1OC` [Compound 2601], in data set [1], the CC50 at 5 days was over 100 µM. Moreover, in data set [2], the EC50 was 1 to 50 µM.
Consider `COc1ccc(C(=O)NCC(=O)c2cc(Cl)cc(-c3csc4c(F)cccc34)n2)cc1OC` [Compound 2604], for which the CC50 at 5 days in data set [1] is over 100 µM. For the same molecule, in data set [2], the EC50 is 1 to 50 µM.
Take `COc1cc(C(=O)NCC(=O)c2ccc(OCC3CC3)c(-c3csc4c(F)cccc34)n2)ccc1OCCO` [Compound 2617]: the CC50 at 5 days in data set [1] was over 100 µM. Also, the EC50 in data set [2] was under 1 µM.
